Experimental data as given in ChEMBL document CHEMBL1144289, “A convenient one-pot synthesis of asymmetric 1,3,5-triazine-2,4,6-triones and its application towards a novel class of gonadotropin-releasing hormone receptor antagonists” (Bioorg Med Chem Lett, 2005).

Molecular target: T1, Gonadotropin-releasing hormone receptor (Homo sapiens, UniProt P30968)
T1 sequence (P30968 whole entry): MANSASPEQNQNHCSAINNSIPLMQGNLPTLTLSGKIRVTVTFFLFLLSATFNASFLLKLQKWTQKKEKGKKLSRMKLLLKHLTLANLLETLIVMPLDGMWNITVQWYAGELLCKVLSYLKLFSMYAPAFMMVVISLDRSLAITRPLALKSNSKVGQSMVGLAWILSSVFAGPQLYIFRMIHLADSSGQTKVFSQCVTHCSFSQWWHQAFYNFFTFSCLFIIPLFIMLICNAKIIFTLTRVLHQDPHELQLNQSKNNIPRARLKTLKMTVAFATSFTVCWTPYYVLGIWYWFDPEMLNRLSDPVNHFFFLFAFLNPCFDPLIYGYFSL
Assay: Inhibitory constant against cloned human Gonadotropin-releasing hormone receptor stably expressed in HEK293 cells was determined
Assay type: cell-based

| Structure (SMILES) | Ki |
| --- | --- |
| N[C@@H](Cn1c(=O)n(Cc2c(F)cccc2F)c(=O)n(-c2ccc3nsnc3c2)c1=O)c1ccccc1 | 0.41 µM |
| N[C@@H](Cn1c(=O)n(Cc2c(F)cccc2F)c(=O)n(-c2ccccc2F)c1=O)c1ccccc1 | 0.089 µM |
| N[C@@H](Cn1c(=O)n(Cc2c(F)cccc2F)c(=O)n(-c2c(F)cccc2F)c1=O)c1ccccc1 | 0.22 µM |
| COc1cccc(-n2c(=O)n(Cc3c(F)cccc3F)c(=O)n(CC(N)c3ccccc3)c2=O)c1 (centres undefined) | 0.12 µM |
| COc1cccc(-n2c(=O)n(CCN(C)CCc3ccccn3)c(=O)n(Cc3c(F)cccc3F)c2=O)c1 | 4.2 µM |

More lines, now with the values ahead:

| Ki | Structure (SMILES) |
| --- | --- |
| > 20 µM | COc1cccc(-c2c(C)n(CCN(C)CCc3ccccn3)c(=O)n(Cc3c(F)cccc3F)c2=O)c1 |
| 0.037 µM | COc1cccc(-n2c(=O)n(Cc3c(F)cccc3F)c(=O)n(C[C@H](N)c3ccccc3)c2=O)c1 |
| 0.0011 µM | COc1cccc(-c2c(C)n(Cc3c(F)cccc3F)c(=O)n(C[C@@H](C)N(C)CCc3ccccn3)c2=O)c1 |
| 0.38 µM | NC(Cc1c[nH]c2ccccc12)Cn1c(=O)n(Cc2c(F)cccc2F)c(=O)n(-c2c(F)cccc2F)c1=O (centres undefined) |
